Source: patent US20240368169A1 (priority 2021, published 2024)

Experiments:
MDA-MB-436 cells = assay: Growth inhibition assay against BRCA mutant human breast cancer MDA-MB-436 cell line (CCK-8, 7 days); type: cell-based
[1] = molecular target: recombinant poly(ADP-ribose) polymerase 1 (PARP1) (Homo sapiens, UniProt P09874); assay: biochemical; details: inhibition of PARP1 enzyme activity, chemiluminescence
[2] = molecular target: recombinant poly(ADP-ribose) polymerase 2 (PARP2) (Homo sapiens, UniProt Q9UGN5); assay: biochemical; details: inhibition of PARP2 enzyme activity, chemiluminescence
[3] = results of clinical trials; cited from earlier work
[4] = system: TNKS1/2 (Tankyrase 1 or Tankyrase 2); details: compared with other PARP inhibitors, biochemical assay; cited from earlier work

Chain of recombinant poly(ADP-ribose) polymerase 2 (PARP2) (Q9UGN5 whole entry): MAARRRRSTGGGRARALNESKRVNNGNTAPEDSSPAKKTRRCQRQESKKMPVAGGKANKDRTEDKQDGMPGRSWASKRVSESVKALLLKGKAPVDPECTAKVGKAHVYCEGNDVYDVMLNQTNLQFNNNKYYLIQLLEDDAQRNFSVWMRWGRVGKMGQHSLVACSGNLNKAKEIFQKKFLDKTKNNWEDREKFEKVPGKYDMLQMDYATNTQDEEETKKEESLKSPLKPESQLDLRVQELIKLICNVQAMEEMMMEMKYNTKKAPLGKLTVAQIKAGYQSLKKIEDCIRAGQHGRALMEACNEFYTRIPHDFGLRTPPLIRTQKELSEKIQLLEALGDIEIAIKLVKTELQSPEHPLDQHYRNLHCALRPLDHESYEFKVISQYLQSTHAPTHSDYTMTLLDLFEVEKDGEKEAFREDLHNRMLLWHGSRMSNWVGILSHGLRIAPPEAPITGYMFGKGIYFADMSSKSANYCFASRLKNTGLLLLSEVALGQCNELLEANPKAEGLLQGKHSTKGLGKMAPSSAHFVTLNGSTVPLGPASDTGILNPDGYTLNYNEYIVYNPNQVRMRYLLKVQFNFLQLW
Chain of recombinant poly(ADP-ribose) polymerase 1 (PARP1) (P09874 whole entry): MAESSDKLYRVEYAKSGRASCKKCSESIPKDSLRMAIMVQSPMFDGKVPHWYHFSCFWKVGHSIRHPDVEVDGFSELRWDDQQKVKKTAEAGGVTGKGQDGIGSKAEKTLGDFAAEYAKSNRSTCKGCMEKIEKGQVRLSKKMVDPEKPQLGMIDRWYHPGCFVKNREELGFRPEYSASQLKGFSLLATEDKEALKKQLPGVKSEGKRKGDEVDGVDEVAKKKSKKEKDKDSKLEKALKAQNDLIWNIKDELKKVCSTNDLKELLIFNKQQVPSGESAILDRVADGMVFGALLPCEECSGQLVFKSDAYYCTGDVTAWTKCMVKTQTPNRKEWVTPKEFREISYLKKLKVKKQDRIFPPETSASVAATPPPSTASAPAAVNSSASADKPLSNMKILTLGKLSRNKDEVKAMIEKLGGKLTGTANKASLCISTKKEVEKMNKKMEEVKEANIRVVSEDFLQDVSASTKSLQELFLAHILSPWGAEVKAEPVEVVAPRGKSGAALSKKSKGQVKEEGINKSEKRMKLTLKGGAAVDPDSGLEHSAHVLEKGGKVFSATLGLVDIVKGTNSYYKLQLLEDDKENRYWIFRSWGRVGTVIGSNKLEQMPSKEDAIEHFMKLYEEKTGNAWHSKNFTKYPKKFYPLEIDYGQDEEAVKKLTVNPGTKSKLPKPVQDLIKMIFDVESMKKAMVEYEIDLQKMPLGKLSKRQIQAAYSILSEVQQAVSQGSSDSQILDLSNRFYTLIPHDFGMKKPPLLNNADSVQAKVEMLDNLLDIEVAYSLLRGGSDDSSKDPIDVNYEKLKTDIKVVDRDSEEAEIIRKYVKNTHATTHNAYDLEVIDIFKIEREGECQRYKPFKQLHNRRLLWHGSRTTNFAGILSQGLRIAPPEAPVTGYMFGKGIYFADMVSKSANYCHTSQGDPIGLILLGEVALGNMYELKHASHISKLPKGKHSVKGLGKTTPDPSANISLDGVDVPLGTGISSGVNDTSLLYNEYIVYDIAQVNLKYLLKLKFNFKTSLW

SMILES | IC50 (MDA-MB-436 cells) | IC50 [1] | IC50 [2] | toxicity [3] | inhibitory activity against TNKS1/2 [4]
CNC(=O)c1ccc(N2CCN(Cc3cc(C)c4c(c3)[nH]c(=O)c3ccnn34)CC2)c(C)n1 [Example 102, 7-((4-(2-methyl-6-(methylcarbamoyl)pyridin-3-yl)piperazin-1-yl)methyl)-9-methylpyrazolo[1,5-a]quinoxalin-4(5H)-one] | 2.24 nM | 6.91 nM | 101 nM |  | 
CNC(=O)c1ccc(N2CCN(Cc3ccc4c([nH]c(=O)c5cc(Cl)nn54)c3F)CC2)c(C)n1 [Example 103, 7-((4-(2-methyl-6-(methylcarbamoyl)pyridin-3-yl)piperazin-1-yl)methyl)-6-fluoro-2-chloropyrazolo[1,5-a]quinoxalin-4(5H)-one] | 1.17 nM | 0.76 nM | 1250 nM |  | 
CNC(=O)c1ccc(N2CCN(Cc3cc(F)c4c(c3)[nH]c(=O)c3sccc34)CC2)c(C)n1 [Example 114, 7-((4-(2-methyl-6-(methylcarbamoyl)pyridin-3-yl)piperazin-1-yl)methyl)-9-fluorothieno[2,3-c]quinolin-4(5H)-one] | 3.72 nM | 0.67 nM | 16.9 nM |  | 
CNC(=O)c1ccc(N2CCN(Cc3ccc4c([nH]c(=O)c5cc(C)nn54)c3F)CC2)c(F)n1 [Example 115, 7-((4-(2-fluoro-6-(methylcarbamoyl)pyridin-3-yl)piperazin-1-yl)methyl)-6-fluoro-2-methylpyrazolo[1,5-a]quinoxalin-4(5H)-one] | 1.98 nM | 1.45 nM | 288 nM |  | 
Cc1nc(C(=O)NCO)ccc1N1CCN(Cc2cc(F)c3c(c2)[nH]c(=O)c2ccnn23)CC1 [Example 117, 7-((4-(2-methyl-6-(N-(hydroxymethyl)carbamoyl)pyridin-3-yl)piperazin-1-yl)methyl)-9-fluoropyrazolo[1,5-a]quinoxalin-4(5H)-one] | 4.74 nM | 0.91 nM | 645 nM |  | 
CNC(=O)c1ccc(N2CCN(Cc3cc(F)c4c(c3)[nH]c(=O)n3ccnc43)CC2)c(Cl)n1 [Example 119, 8-((4-(2-chloro-6-(methylcarbamoyl)pyridin-3-yl)piperazin-1-yl)methyl)-10-fluoroimidazo[1,2-c]quinazolin-5(6H)-one] | 16.2 nM | 1.83 nM | 9500 nM |  | 
Cn1ncnc1[C@H]1c2n[nH]c(=O)c3cc(F)cc(c23)N[C@@H]1c1ccc(F)cc1 [Talazoparib] |  |  |  | toxicity similar to chemotherapy drugs such as hair loss | more potent inhibitory activity
